Key:
[1] = tested on: mitochondrial permeability transition pore (mPTP); assay: TMRM staining of 293T cells after CCCP-induced mPTP opening; format: cell-based; conditions: 1 μM and 10 μM, CCCP 50 μM, FIG. 3
beta-catenin = assay: Nuclear beta-catenin luciferase assay in TCF/LEF reporter_HEK293 cell line; format: cell-based; conditions: TCF/LEF reporter_HEK293, 1 μm or 10 μm, 24 hours, FIG. 1
[2] = tested on: reperfusion injury mouse model; assay: Mouse myocardial necrosis in reperfusion injury model, Annexin-Vivo750 fluorescent dye; format: in vivo; conditions: Annexin-Vivo750, FIG. 7B
Method: In order to confirm the inhibitory effect of deoxycholic acid among the bile acids on myocardial necrosis caused by reperfusion injury, the test was performed to confirm mouse myocardial necrosis using Annexin-Vivo750 fluorescent dye.
After 24 hours, Annexin-Vivo750 fluorescent dye was injected into the mouse model prepared in Example 3 to examine the effect of deoxycholic acid (1, 2, 5 mg/kg (mpk)) by the concentration. Annexin dyes are known to bind where apoptosis occurs and to show fluorescence.

[3] = tested on: reperfusion injury mouse model; assay: Reperfusion injury mouse model, TTC staining of infarcted heart tissue

| SMILES | inhibition of mitochondrial injury [1] | beta-catenin levels in the nucleus (luciferase activity) (beta-catenin) | decrease of myocardial death compared to the control group with reperfusion surgery ([2]; 1 mpk) | decrease of myocardial death compared to the control group with reperfusion surgery ([2]; 2 mpk) | reduction of the infarcted area ([3]; 2 mg/kg, FIG. 6B) | concentration at which cells died ([3]; reperfusion injury mouse model) | concentration at which the effect was shown ([3]; reperfusion injury mouse model) |
| --- | --- | --- | --- | --- | --- | --- | --- |
| C[C@H](CCC(=O)O)[C@H]1CC[C@H]2[C@@H]3[C@H](O)C[C@@H]4C[C@H](O)CC[C@]4(C)[C@H]3C[C@H](O)[C@]12C [cholic acid] | about 90% | significantly increased | – | – | – | – | – |
| C[C@H](CCC(=O)O)[C@H]1CC[C@H]2[C@@H]3CC[C@@H]4C[C@H](O)CC[C@]4(C)[C@H]3C[C@H](O)[C@]12C [deoxycholic acid] | about 90% | – | ≥ 40% | ≥ 40% | about 50% | ≥ 10 mg/kg | ≤ 2 mg/kg |
| C[C@H](CCC(=O)NCCS(=O)(=O)O)[C@H]1CC[C@H]2[C@@H]3[C@H](O)C[C@@H]4C[C@H](O)CC[C@]4(C)[C@H]3C[C@H](O)[C@]12C [TauroCA, taurocholic acid] | – | significantly increased | – | – | – | – | – |
